Source: US12180187B2, “1-phenyl-5-azinylpyrazolyl-3-oxyalkyl acids and their use for controlling unwanted plant growth” (BAYER AKTIENGESELLSCHAFT, priority 2019, dated 2024)

How the values were obtained:
AMARE [1] = test: Post-emergence action against AMARE, 1.28 kg/ha; type: in vivo, Amaranthus retroflexus; conditions: dosage 1280 g/ha, visual rating about 3 weeks after treatment vs untreated controls (100% = plants died)
Method: (§1) • a) Seeds of mono- and dicotyledonous weed plants are placed in plastic pots in sandy loam soil (twin sowing with one species each of mono- or dicotyledonous weed plants per pot), covered with soil and cultivated in a greenhouse under controlled growth conditions. 2 to 3 weeks after sowing, the test plants are treated at the one-leaf stage. The compounds of the invention, formulated in the form of wettable powders (WP) or as emulsion concentrates (EC), are applied to the green parts of the plants as aqueous suspension or emulsion with addition of 0.5% additive at a water application rate equivalent to 600 litres per hectare. After the test plants have been kept in the greenhouse under optimum growth conditions for about 3 weeks, the activity of the preparations is rated visually in comparison to untreated controls. For example, 100% activity=the plants have died, 0% activity=like control plants. As shown by the results, compounds of the general formula (I) of the invention, in post-emergence treatment, have very good herbicidal efficacy (90% to 100% herbicidal action) against harmful plants such as Abutilon theophrasti, Digitaria sanguinalis, Echinochloa crus-galli, Matricaria inodora, Poa annua, at an application rate of 1.28 kg of active substance per hectare.

MATIN [2] = test: Post-emergence action against MATIN, 1.28 kg/ha; type: in vivo, Tripleurospermum inodorum (Matricaria inodora); conditions: dosage 1280 g/ha, visual rating about 3 weeks after treatment vs untreated controls (100% = plants died)
Method: as §1

STEME = test: Pre-emergence action against STEME, 1280 g/ha; type: in vivo, Stellaria media; conditions: scored visually after about 3 weeks vs untreated controls (100% = plants have died)
Description: (§2) 1. Pre-Emergence Herbicidal Effect and Crop Plant Compatibility a) Seeds of mono- and dicotyledonous weed plants are placed in plastic pots in sandy loam soil (doubly sown with one species each of mono- or dicotyledonous weed plants per pot) and covered with soil. The compounds of the invention, formulated in the form of wettable powders (WP) or as emulsion concentrates (EC), are then applied onto the surface of the covering soil as aqueous suspension or emulsion with addition of 0.5% additive at a water application rate equivalent to 600 litres per hectare. After the treatment, the pots are placed in a greenhouse and kept under good growth conditions for the trial plants. After about 3 weeks, the effect of the preparations is scored visually in comparison with untreated controls as percentages. For example, 100% activity=the plants have died, 0% activity=like control plants. 1. Pre-Emergence Effectiveness Tables 1 to 12 below show the effects of selected compounds of the general formula (I) according to Tables 1 and 2 on various harmful plants and at an application rate corresponding to 1280 g/ha, which were obtained by the experimental procedure mentioned above.

POAAN [3] = test: Pre-emergence action against POAAN, 1280 g/ha; type: in vivo, Poa annua; conditions: visual scoring after about 3 weeks vs untreated controls, 100% = plants have died, 0% = like control plants
Description: as §2

SETVI = test: Pre-emergence action against SETVI, 1280 g/ha; type: in vivo, Setaria viridis; conditions: visual scoring after about 3 weeks vs untreated controls, 100% = plants have died, 0% = like control plants
Description: as §2

AMARE [4] = test: Pre-emergence action against AMARE, 1280 g/ha; type: in vivo, Amaranthus retroflexus; conditions: scored visually after about 3 weeks vs untreated controls (100% = plants have died)
Description: as §2

MATIN [5] = test: Pre-emergence action against MATIN, 1280 g/ha; type: in vivo, Tripleurospermum inodorum (Matricaria inodora); conditions: scored visually after about 3 weeks vs untreated controls (100% = plants have died)
Description: as §2

VERPE [6] = test: Pre-emergence action against VERPE, 1280 g/ha; type: in vivo, Veronica persica; conditions: scored visually after about 3 weeks vs untreated controls (100% = plants have died)
Description: as §2

ALOMY [7] = test: Post-emergence action against ALOMY, 1.28 kg/ha; type: in vivo, Alopecurus myosuroides; conditions: dosage 1280 g/ha, visual rating about 3 weeks after treatment vs untreated controls
Method: as §1

VERPE [8] = test: Post-emergence action against VERPE, 1.28 kg/ha; type: in vivo, Veronica persica; conditions: dosage 1280 g/ha, visual rating about 3 weeks after treatment vs untreated controls (100% = plants died)
Method: as §1

DIGSA [9] = test: Pre-emergence action against DIGSA, 1280 g/ha; type: in vivo, Digitaria sanguinalis; conditions: visual scoring after about 3 weeks vs untreated controls, 100% = plants have died, 0% = like control plants
Description: as §2

ECHCG = test: Pre-emergence action against ECHCG, 1280 g/ha; type: in vivo, Echinochloa crus-galli; conditions: visual scoring after about 3 weeks vs untreated controls, 100% = plants have died, 0% = like control plants
Description: as §2

LOLRI = test: Pre-emergence action against LOLRI, 1280 g/ha; type: in vivo, Lolium rigidum; conditions: visual scoring after about 3 weeks vs untreated controls, 100% = plants have died, 0% = like control plants
Description: as §2

DIGSA [10] = test: Post-emergence action against DIGSA, 1.28 kg/ha; type: in vivo, Digitaria sanguinalis; conditions: dosage 1280 g/ha, visual rating about 3 weeks after treatment vs untreated controls
Method: as §1

POAAN [11] = test: Post-emergence action against POAAN, 1.28 kg/ha; type: in vivo, Poa annua; conditions: dosage 1280 g/ha, visual rating about 3 weeks after treatment vs untreated controls
Method: as §1

ALOMY [12] = test: Pre-emergence action against ALOMY, 1280 g/ha; type: in vivo, Alopecurus myosuroides; conditions: visual scoring after about 3 weeks vs untreated controls, 100% = plants have died, 0% = like control plants
Description: as §2

Structure (SMILES) | Post-emergence action against AMARE (AMARE [1]) [%] | Post-emergence action against MATIN (MATIN [2]) [%] | Pre-emergence action against STEME (STEME) [%] | Post-emergence action against ALOMY (ALOMY [7]) [%] | Pre-emergence action against DIGSA (DIGSA [9]) [%] | Pre-emergence action against POAAN (POAAN [3]) [%] | Pre-emergence action against SETVI (SETVI) [%] | Pre-emergence action against AMARE (AMARE [4]) [%] | Pre-emergence action against MATIN (MATIN [5]) [%] | Pre-emergence action against VERPE (VERPE [6]) [%] | Post-emergence action against VERPE (VERPE [8]) [%] | further results
O=C(COc1nn(-c2ccc(F)cc2F)c(-c2ccc(F)cn2)c1Br)NO [II-018] | 100 | 90 | – | – | – | – | – | – | – | – | – | –
CCOC(=O)COc1nn(-c2ccccc2F)c(-c2ccc(OCC)nc2)c1Br [VII-127] | – | – | 90 | – | – | – | – | – | – | – | – | –
CCOC(=O)COc1nn(-c2ccccc2F)c(-c2ccnnc2)c1C#N [IV-003, Ethyl {[4-cyano-1-(2-fluorophenyl)-5-(pyridazin-4-yl)-1H-pyrazol-3-yl]oxy}acetate] | 90 | – | – | 100 | – | – | – | – | – | – | – | pest or weed control at 1280 g/ha (POAAN [3]; Poa annua, 504 h): 90%; pest or weed control at 1280 g/ha (SETVI; Setaria viridis, 504 h): 100%; pest or weed control at 1280 g/ha (AMARE [4]; Amaranthus retroflexus, 504 h): 90%; pest or weed control at 1280 g/ha (MATIN [5]; Tripleurospermum inodorum, 504 h): 90%; pest or weed control at 1280 g/ha (STEME; Stellaria media, 504 h): 100%; pest or weed control at 1280 g/ha (VERPE [6]; Veronica persica, 504 h): 100%; pest or weed control at 1280 g/ha (VERPE [8]; Veronica persica, 504 h): 90%
CCOC(=O)COc1nn(-c2ccccc2F)c(-c2cnc(F)c(F)c2)c1Br [VII-148] | 100 | 100 | 90 | 100 | 100 | 100 | 90 | 100 | 90 | 90 | – | Pre-emergence action against ECHCG (ECHCG): 90%; Pre-emergence action against LOLRI (LOLRI): 90%; Post-emergence action against DIGSA (DIGSA [10]): 100%; Post-emergence action against POAAN (POAAN [11]): 100%
N#CCCNC(=O)COc1nn(-c2ccccc2F)c(-c2ccc(F)cn2)c1Br [II-005] | – | – | – | – | – | – | – | 90 | – | – | – | –
CCOC(=O)COc1nn(-c2ccccc2F)c(-c2ccc(F)nc2)c1SC [VII-021] | – | – | – | – | – | 90 | – | 90 | – | – | – | –
O=C(COc1nn(-c2ccccc2F)c(-c2ccc(F)nc2)c1Br)N1CCSC1=O [Example X-011] | 90 | 100 | – | 90 | 100 | 100 | 100 | 100 | 90 | 100 | 90 | Pre-emergence action against ECHCG (ECHCG): 100%; Post-emergence action against POAAN (POAAN [11]): 100%
COC(=O)CNC(=O)COc1nn(-c2ccccc2F)c(-c2ccc(F)cn2)c1Br [II-013] | – | 90 | 100 | 90 | 100 | 100 | 100 | 90 | 90 | 100 | 90 | Pre-emergence action against ALOMY (ALOMY [12]): 90%; Pre-emergence action against ECHCG (ECHCG): 90%; Pre-emergence action against LOLRI (LOLRI): 100%; Post-emergence action against POAAN (POAAN [11]): 90%
COC(=O)[C@@H](C)Oc1nn(-c2ccccc2F)c(-c2cnccn2)c1Br [Example I-001] | 90 | – | 100 | – | 90 | 100 | 90 | 100 | 90 | 100 | – | Pre-emergence action against ALOMY (ALOMY [12]): 90%; Pre-emergence action against LOLRI (LOLRI): 90%
COC(=O)COc1nn(-c2ccccc2F)c(-c2ccc(OC)nc2)c1Br [VII-022] | – | – | – | – | – | – | – | – | – | 90 | 90 | –
COC(=O)C(C)Oc1nn(-c2ccccc2)c(-c2ccc(Cl)nc2)c1Cl (centres unmarked) [VII-017] | – | – | – | – | 90 | 90 | – | 90 | – | 100 | 100 | Post-emergence action against DIGSA (DIGSA [10]): 90%
COC(=O)[C@@H](C)Oc1nn(-c2ccccc2F)c(-c2cncnc2)c1Cl [VI-017] | 90 | – | 90 | – | – | 90 | – | 100 | 100 | 100 | – | Pre-emergence action against ALOMY (ALOMY [12]): 90%
COC(=O)C(C)Oc1nn(-c2ccccc2)c(-c2ccc(C)nc2)c1Cl (centres unmarked) [VII-013] | – | – | – | – | 90 | 100 | – | – | – | 100 | 100 | Post-emergence action against DIGSA (DIGSA [10]): 90%
CSc1c(OCC(=O)O)nn(-c2ccccc2F)c1-c1ccc(F)nc1 [VII-056] | 100 | 100 | 90 | 100 | 100 | 90 | 90 | 90 | 90 | – | 90 | Pre-emergence action against LOLRI (LOLRI): 90%; Post-emergence action against DIGSA (DIGSA [10]): 90%; Post-emergence action against POAAN (POAAN [11]): 100%
